Experimental data reported in publication PMC9304066, “H2S biogenesis by cystathionine beta-synthase: mechanism of inhibition by aminooxyacetic acid and unexpected role of serine” (Cellular and Molecular Life Sciences: CMLS, 2022).
pIC50: −log10 of the molar value.

Legend:
HsCBS [1] = biological target: T1, HsCBS (Homo sapiens, UniProt P35520, DEL516-525); assay: CBL-LDH coupled-coupled CBS assay, HsCBS; assay type: biochemical; settings: for Vmax / kcat: CBL-LDH coupled-coupled assay; for Reduction of activity catalyzing condensation of Cys and Hcy yielding H2S: AOAA-inhibited HsCBS (200 µM AOAA)
T1 construct: purchased GenScript
T1 sequence (P35520 with tags, fused parts or gaps DEL516-525): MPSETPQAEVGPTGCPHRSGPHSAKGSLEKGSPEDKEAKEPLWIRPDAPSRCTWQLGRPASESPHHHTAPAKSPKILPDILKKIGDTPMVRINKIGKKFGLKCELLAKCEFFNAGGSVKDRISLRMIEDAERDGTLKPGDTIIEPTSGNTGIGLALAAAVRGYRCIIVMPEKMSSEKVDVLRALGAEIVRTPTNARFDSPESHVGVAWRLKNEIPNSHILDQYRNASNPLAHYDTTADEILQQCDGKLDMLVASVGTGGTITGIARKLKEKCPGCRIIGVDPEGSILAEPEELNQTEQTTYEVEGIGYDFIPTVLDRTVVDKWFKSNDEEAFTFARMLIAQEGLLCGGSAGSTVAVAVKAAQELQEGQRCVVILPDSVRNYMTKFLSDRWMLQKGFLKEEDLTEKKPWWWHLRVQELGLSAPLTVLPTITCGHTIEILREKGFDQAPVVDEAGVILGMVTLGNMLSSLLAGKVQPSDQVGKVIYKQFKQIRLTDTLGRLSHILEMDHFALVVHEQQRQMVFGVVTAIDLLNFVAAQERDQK
Procedure: CBS coupled-coupled assay. CBS canonical activity utilizing Ser and Hcy was determined using cystathionine beta-lyase (CBL) and lactate-dehydrogenase (LDH) coupled-coupled assay as described previously with a few modifications. Native L-LDH from rabbit muscle was purchased from Sigma (catalog no. L2500) and recombinant CBL was purchased from Creative Enzymes (catalog no. NATE-1146). In a final volume of 150 µL, the reaction mixture contained 50 mM Tris–HCl pH 8.9, 20 µM PLP, 500 µM NADH, 1.3 µM LDH, 0.1 µM CBL, 0–20 mM Ser (or 0–50 mM Cys) and 500 ng of tScCBS or HsCBS. Assays with HsCBS were carried out in the absence or presence of 500 µM CBS allosteric activator S-adenosylmethionine (SAM). The reaction was triggered by the addition of 2 mM Hcy and the oxidation of NADH to NAD^+ was followed by monitoring the decrease in absorbance at 340 nm over time (ε340 = 6220 M^−1.cm^−1). […] All measurements were performed in triplicates using Tecan Infinite 200 PRO microplate reader. Kinetic data were analyzed using GraphPad Prism software.

tScCBS = biological target: T2, tScCBS (Saccharomyces cerevisiae, UniProt P32582); assay: CBS H2S production assay (AzMC fluorometric), tScCBS; assay type: biochemical
T2 construct: 6xHis (C); made in house
T2 sequence (P32582 1-345): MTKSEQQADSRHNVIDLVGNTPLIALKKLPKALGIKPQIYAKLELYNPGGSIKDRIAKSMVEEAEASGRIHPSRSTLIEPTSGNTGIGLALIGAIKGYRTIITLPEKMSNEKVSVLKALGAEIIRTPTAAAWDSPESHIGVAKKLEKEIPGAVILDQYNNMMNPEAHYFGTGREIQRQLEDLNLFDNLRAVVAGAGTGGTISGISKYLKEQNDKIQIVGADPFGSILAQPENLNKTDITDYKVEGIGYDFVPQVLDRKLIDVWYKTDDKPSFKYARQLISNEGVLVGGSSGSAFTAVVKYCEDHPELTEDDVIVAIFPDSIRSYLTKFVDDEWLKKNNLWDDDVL
Procedure: (§1) CBS H2S production assay. H2S-producing activity of CBS, utilizing Cys and Hcy, was determined using a fluorometric assay employing the H2S-selective fluorescent probe 7-azido-4-methylcoumarin (AzMC) as described previously. The reaction mixture in a total volume of 200 µL contained 50 mM Tris–HCl pH 8.6, 5 μM PLP, 2 mM Hcy, 10 μM AzMC and 500 ng tScCBS or HsCBS. The plate was incubated for 10 min at 37°C and the enzymatic activity was triggered by adding 0–50 mM Cys. The fluorescence of the mixtures at 450 nm (excited at 365 nm) was followed for 2 h at 37°C. All measurements were performed in triplicates using Tecan Infinite 200 PRO microplate reader. Kinetic data were analyzed using GraphPad Prism software.

HsCBS [2] = biological target: T1, HsCBS; assay: CBS H2S production assay (AzMC fluorometric), HsCBS; assay type: biochemical; settings: for pIC50: AzMC assay, 5 mM Cys + 2 mM Hcy
Procedure: as §1

HEK293 cells = assay: Detection of H2S production in live cells (AzMC imaging); assay type: cell-based, human
Procedure: Cell culture. The human embryonic kidney cell line HEK293 (ATCC CRL-1573) was cultured in Dulbecco’s Modified Eagle Medium (DMEM) containing 4.5 g/L glucose. The culture medium was supplemented with 10% (v/v) heat-inactivated fetal bovine serum, 2 mM Glutamax, non-essential amino acids, 100 U/ml penicillin and 100 μg/ml streptomycin. Cells were grown in a humidified incubator at 37 °C and 5% CO2 atmosphere. Cell viability and proliferation were assessed using MTT and BrdU assay, respectively, essentially as described previously. Detection of H2S production in live cells. Cells were seeded in black 96-well plates with optical bottom (15,000 cells/well). The following morning, the cells were treated with 150 µM AOAA, 1/3/10 mM Ser or their combination for 24 h. After that the culture medium was replaced with Hank’s Balanced Salt Solution (HBSS) buffer supplemented with 100 μM AzMC and further incubated for 1 h. Dye’s specific fluorescence was visualized using a Leica DFC360 FX microscope and images were captured with Leica Application Suite X software (Leica Biosystems, Germany). Images were analyzed with ImageJ software (version 1.8.0; NIH, Bethesda, MD, USA) and data were analyzed using GraphPad Prism 8 (GraphPad Software Inc.; San Diego, CA, USA).

Row | Vmax (HsCBS [1]; HsCBS + SAM) | kcat (HsCBS [1]; HsCBS + SAM) | Vmax (HsCBS [1]; HsCBS – SAM) | kcat (HsCBS [1]; HsCBS – SAM) | Recovery of activity of AOAA-inhibited enzyme (tScCBS; tScCBS, 1 mM Ser after 200 µM AOAA incubation, then desalting) | Recovery of activity of AOAA-inhibited enzyme (HsCBS [2]; HsCBS in the absence and presence of SAM, 1 mM Ser after 200 µM AOAA incubation, then desalting) | SMILES | Reduction of cellular H2S productivity (HEK293 cells; HEK293, 10 mM Ser in growth medium) | Reduction of H2S production (HEK293 cells; HEK293, Ser added to medium (1/3/10 mM, 24 h), concentration-dependent, 'up to') | Recovery of H2S-producing capacity, % of control WT activity (HEK293 cells; HEK293 inhibited by 150 µM AOAA, with 1, 3 or 10 mM Ser) | Reduction of activity catalyzing condensation of Cys and Hcy yielding H2S (HsCBS [1]; absence of SAM) | Reduction of activity catalyzing condensation of Cys and Hcy yielding H2S (HsCBS [1]; presence of SAM) | Effect on condensation of Ser and Hcy (canonical reaction) (HsCBS [1]; HsCBS ± 500 µM SAM inhibited by 200 µM AOAA, 5 mM Ser + 2 mM Hcy) | Inhibition of CBS activity (tScCBS; 200 µM AOAA, then excess removed by desalting column, range printed for tScCBS and HsCBS together) | pIC50 (tScCBS; tScCBS, AzMC assay, 5 mM Cys + 2 mM Hcy) | pIC50 (HsCBS [2]; HsCBS in the absence of SAM) | pIC50 (HsCBS [2]; HsCBS in the presence of 500 µM SAM) | H2S-producing activity, % of the controls (HEK293 cells; HEK293, 150 µM AOAA, 24 h)
1 | 156.3 ± 7.6 µmol/h/mg | 2.7 ± 0.1 s⁻¹ | 37.2 ± 1.5 µmol/h/mg | 0.63 ± 0.06 s⁻¹ | substantial recovery | substantial recovery | N[C@@H](CO)C(=O)O [Ser, serine] | ~ 29% | ~ 30% | 82–89% | – | – | – | – | – | – | – | –
2 | – | – | – | – | – | – | NOCC(=O)O [AOAA, aminooxyacetic acid] | – | – | – | 63% | 71% | not impaired | 75–92% | 5.04 | 4.89 | 4.96 | ~ 15%
